Experimental data as given in paper PMC5780493, “Epsin and Sla2 form assemblies through phospholipid interfaces” (Nature Communications, 2018).
Numbering of substitutions follows the chain as printed. One block for each molecule: values may come before it.

How the values were obtained:
[1] = target: T1, ENTH1 (Ent1 ENTH domain, S. cerevisiae) (Saccharomyces cerevisiae, UniProt Q12518, T104E); assay: native MS; format: binding; conditions: ammonium acetate, 1 mM DTT, pH 8.0; 10 uM protein, 60 uM PIP2
T1 construct: ENTH domain (N-terminal); purified recombinant
T1 sequence (Q12518 1-154 T104E): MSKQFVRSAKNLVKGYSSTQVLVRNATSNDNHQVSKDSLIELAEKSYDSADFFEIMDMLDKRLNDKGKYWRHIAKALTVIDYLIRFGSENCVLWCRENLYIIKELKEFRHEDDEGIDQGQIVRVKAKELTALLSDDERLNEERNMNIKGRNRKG

[2] = target: T2, ANTHSla2 (C. thermophilum), ANTHCh (Thermochaetoides thermophila, UniProt G0S106); assay: native MS titration, corrected for unspecific binding; conditions: ammonium acetate 300 mM, 1 mM DTT, pH 8.0; 10 uM protein, 60 uM PIP2; two sites
T2 construct: gene CTHT_0011900; ANTH domain; E. coli, N-terminal His6 tag cut with TEV
T2 sequence (G0S106 entry or part of it): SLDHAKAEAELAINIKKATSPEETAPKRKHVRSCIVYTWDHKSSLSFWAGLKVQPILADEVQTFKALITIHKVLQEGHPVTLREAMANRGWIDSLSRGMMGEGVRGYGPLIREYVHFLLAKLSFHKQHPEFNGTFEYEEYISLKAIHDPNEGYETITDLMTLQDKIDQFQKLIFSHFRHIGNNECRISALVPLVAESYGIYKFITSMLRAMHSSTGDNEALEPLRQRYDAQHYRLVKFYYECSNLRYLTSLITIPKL

[3] = target: T3, ENTH2 (Ent2 ENTH domain, S. cerevisiae) (Saccharomyces cerevisiae, UniProt Q05785); assay: X-ray crystal structure, […] A; format: binding; conditions: 0.1 M MES pH 6.5, 1.45 M ammonium sulfate; canonical phosphoinositide pocket, dimer interface
T3 construct: ENTH domain (N-terminal); purified recombinant; two domains sandwich one PIP2 in the crystal
T3 sequence (Q05785 1-156): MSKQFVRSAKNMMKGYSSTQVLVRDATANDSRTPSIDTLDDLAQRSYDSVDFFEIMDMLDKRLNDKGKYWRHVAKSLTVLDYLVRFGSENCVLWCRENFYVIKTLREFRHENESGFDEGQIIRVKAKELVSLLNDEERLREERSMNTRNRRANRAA

[4] = target: T4, ENTH1 (Ent1 ENTH domain, S. cerevisiae) (Saccharomyces cerevisiae, UniProt Q12518); assay: native MS titration, corrected for unspecific binding; conditions: ammonium acetate 300 mM, 1 mM DTT, pH 8.0; 10 uM protein, 60 uM PIP2; two sites, positive cooperativity
T4 construct: ENTH domain (N-terminal); purified recombinant
T4 sequence (Q12518 1-154): T1 sequence (Q12518 1-154 T104E) with E104T

[5] = target: T5, ANTHSla2 (S. cerevisiae) (Saccharomyces cerevisiae, UniProt P33338); assay: as above; conditions: ammonium acetate 300 mM, 1 mM DTT, pH 8.0; 10 uM protein, 60 uM PIP2; two sites, positive cooperativity
T5 construct: gene SLA2; ANTH domain (N-terminal); purified recombinant
T5 sequence (P33338 1-360 limits assumed): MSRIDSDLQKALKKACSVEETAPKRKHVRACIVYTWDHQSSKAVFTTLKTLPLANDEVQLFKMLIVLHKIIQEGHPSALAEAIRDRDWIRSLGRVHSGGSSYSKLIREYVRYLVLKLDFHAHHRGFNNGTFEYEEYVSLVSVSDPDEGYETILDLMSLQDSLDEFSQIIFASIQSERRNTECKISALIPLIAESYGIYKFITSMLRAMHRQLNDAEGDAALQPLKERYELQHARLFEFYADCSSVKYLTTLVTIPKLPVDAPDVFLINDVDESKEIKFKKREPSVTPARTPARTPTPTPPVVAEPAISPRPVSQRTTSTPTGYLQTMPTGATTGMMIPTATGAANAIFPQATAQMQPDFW

[6] = target: T6, CALM ANTH domain (Homo sapiens, UniProt Q13492); assay: as above; conditions: ammonium acetate 300 mM, 1 mM DTT, pH 8.0; 10 uM protein, 60 uM PIP2; two sites, not cooperative
T6 construct: gene PICALM; ANTH domain; E. coli, N-terminal His6 tag cut with TEV
T6 sequence (Q13492 1-289 limits assumed): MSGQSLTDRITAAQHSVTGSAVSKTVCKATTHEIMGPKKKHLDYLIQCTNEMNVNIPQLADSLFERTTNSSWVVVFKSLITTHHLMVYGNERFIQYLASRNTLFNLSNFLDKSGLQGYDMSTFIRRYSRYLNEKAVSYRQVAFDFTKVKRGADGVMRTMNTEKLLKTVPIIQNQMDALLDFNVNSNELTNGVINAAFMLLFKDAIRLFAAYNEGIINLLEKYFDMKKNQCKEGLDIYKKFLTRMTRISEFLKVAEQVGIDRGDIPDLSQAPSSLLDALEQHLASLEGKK

[7] = target: T3, ENTH2 (Ent2 ENTH domain, S. cerevisiae); assay: as above; conditions: ammonium acetate 300 mM, 1 mM DTT, pH 8.0; 10 uM protein, 60 uM PIP2; two sites, positive cooperativity
[8] = target: T7, human epsin-1 ENTH/Hip1R ANTH complex (Homo sapiens, UniProt O75146+Q9Y6I3); assay: native MS of assembled complex; format: binding; conditions: ammonium acetate 300 mM, 1 mM DTT, pH 8.0; 10 uM ENTH, 10 uM ANTH, 60 uM PIP2; stoichiometry
T7 construct: gene EPN1; EPN1 aa 1-158 (extra Gly after Met) and Hip1R aa 1-300; His-GST tags cut with TEV; 6:0 to 8:8, mainly 6:6
T7 sequence (Q9Y6I3 1-158): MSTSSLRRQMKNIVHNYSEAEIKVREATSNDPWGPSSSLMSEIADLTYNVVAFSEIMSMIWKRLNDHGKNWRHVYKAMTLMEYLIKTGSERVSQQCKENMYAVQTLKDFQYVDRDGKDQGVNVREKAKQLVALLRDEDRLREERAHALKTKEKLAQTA
T7 sequence (O75146 1-300): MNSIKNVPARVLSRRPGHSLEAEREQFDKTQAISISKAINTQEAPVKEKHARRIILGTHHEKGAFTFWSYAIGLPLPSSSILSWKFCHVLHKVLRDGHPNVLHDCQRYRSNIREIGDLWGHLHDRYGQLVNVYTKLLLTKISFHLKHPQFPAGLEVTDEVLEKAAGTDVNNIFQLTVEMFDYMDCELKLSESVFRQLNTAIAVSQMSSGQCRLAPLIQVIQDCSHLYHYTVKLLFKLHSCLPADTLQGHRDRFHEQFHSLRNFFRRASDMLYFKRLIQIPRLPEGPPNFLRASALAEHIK

[9] = target: T5, ANTHSla2 (S. cerevisiae); assay: native MS titration, corrected for unspecific binding; conditions: ammonium acetate 300 mM, 1 mM DTT, pH 8.0; 10 uM protein, 60 uM PIP2; second site (canonical site removed)
[10] = target: T8, ENTH (epsin ENTH domain, C. thermophilum) (Thermochaetoides thermophila, UniProt G0SAK2); assay: as above; conditions: ammonium acetate 300 mM, 1 mM DTT, pH 8.0; 10 uM protein, 60 uM PIP2; two sites, positive cooperativity
T8 construct: ENTH domain; E. coli, N-terminal His6 tag cut with TEV
T8 sequence (G0SAK2 with tags, fused parts or gaps): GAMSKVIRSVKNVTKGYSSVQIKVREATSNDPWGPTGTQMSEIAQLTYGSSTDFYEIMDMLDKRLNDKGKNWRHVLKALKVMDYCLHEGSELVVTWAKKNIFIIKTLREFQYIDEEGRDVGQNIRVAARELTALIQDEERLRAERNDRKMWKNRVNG

[11] = target: T9, human epsin-1 ENTH (EPN1) (Homo sapiens, UniProt Q9Y6I3); assay: native MS; SAXS; format: binding; conditions: hexamer formation with PIP2; SAXS in 20 mM Tris-HCl pH 8.0, 250 mM NaCl, 0.2 mM PIP2
T9 construct: ENTH domain aa 1-158, extra Gly after start Met; E. coli His-GST fusion, tag cut with TEV; hexamer with PIP2
T9 sequence (Q9Y6I3 1-158): T7 sequence (Q9Y6I3 1-158)

[12] = target: T10, Epsin (Ent1) ENTH (Saccharomyces cerevisiae, UniProt Q12518); assay: ITC
T10 chain: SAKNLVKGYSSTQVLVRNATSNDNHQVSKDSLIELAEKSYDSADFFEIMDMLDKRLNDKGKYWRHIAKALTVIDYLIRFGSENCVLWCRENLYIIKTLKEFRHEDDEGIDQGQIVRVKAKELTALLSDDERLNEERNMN

- KD,1 / KD,2 (macroscopic) [4]: ENTH1 and ENTH2) from S. cerevisiae
- KD,1 / KD,2 (macroscopic) [7]: ENTH1 and ENTH2) from S. cerevisiae
- dissociation constant [9]: 300 ± 70 µM
Molecule: CCCCCCCC(=O)OC[C@H](COP(=O)(O)O[C@@H]1[C@H](O)[C@H](O)[C@@H](OP(=O)(O)O)[C@H](OP(=O)(O)O)[C@H]1O)OC(=O)CCCCCCC [PIP2]
- native MS [1]: Thr104Glu mutant of ENTH1 from S. cerevisiae shows a reduction of PIP2 binding
- KD,1 / KD,2 (macroscopic) [2]: several ANTH domains, showing two PIP2 binding sites for all wild-type proteins
- X-ray crystal structure, 3.35 A [3]: The structure shows two ENTH2 domains sandwiched around one PIP2 molecule
- KD,1 / KD,2 (macroscopic) [5]: PIP2 dissociation constants are higher for Sla2 ANTH domains than for ENTH domains
- KD,1 / KD,2 (macroscopic) [6]: macroscopic dissociation constants for CALM suggest higher affinity for the first PIP2-binding site
- native MS of assembled complex [8]: human epsin-1 ENTH domain with human Hip1R ANTH domain and PIP2
- KD,1 / KD,2 (macroscopic) [10]: homologous epsin from C. thermophilum bind up to two PIP2 molecules per domain
- native MS; SAXS [11]: A minimum of six PIP2 molecules is required for human ENTH hexamer formation

- Kd [12]: 450 nM
B1: Sla2 ANTH (protein)
chain: MSRIDSDLQKALKKACSVEETAPKRKHVRACIVYTWDHQSSKAVFTTLKTLPLANDEVQLFKMLIVLHKIIQEGHPSALAEAIRDRDWIRSLGRVHSGGSSYSKLIREYVRYLVLKLDFHAHHRGFNNGTFEYEEYVSLVSVSDPDEGYETILDLMSLQDSLDEFSQIIFASIQSERRNTECKISALIPLIAESYGIYKFITSMLRAMHRQLNDAEGDAALQPLKERYELQHARLFEFYADCSSVKYLTTLVTIPKLPVDAPDVFLINDVDESKEIKFKKREPSVT
modifications: PIP2
